{"source": "PubChem BioAssay AID1919016", "about": "(Molecular Pharmacology Branch, DTP, NCI, 2023)", "system": "NCI-H196 complex spheroid growth, percent test/control", "experiment": "Anticancer human tumor NCI-H196 cell line growth inhibition [AhR];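 as to all read-outs here: seven days of drug exposure starting three days after plating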;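 as to viability, T/C: 100% = DMSO vehicle control wells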", "settings": "for IC50: curve of first compound; for viability, T/C: stronger effect = lower value", "source_text": "Multicellular complex tumor spheroid response to aryl hydrocarbon receptor antagonists in combination with a variety of drugs and investigational agents in selected tumor cell lines\nThe current study was undertaken to assess response to aryl hydrocarbon receptor antagonists in combination with standard-of-care drugs and investigational agents in solid tumor complex spheroid models. Complex spheroids include a stromal component modeled by human endothelial cells (HUVEC) and fibroblasts modeled by human mesenchymal stem cells (MSCs). The concentration ranges selected for each drug and investigational agent were based upon clinically achievable concentrations if the clinical Cmax of the agent was known.\nCompounds. The drugs and investigational agents: BAY 2416964 (NSC825713), GNF351 (NSC835774), CH-223191 (NSC835775), CPI-455 (NSC825282), aza-TdCyd (NSC777586), decitabine (NSC127716), belinostat (NSC758774), entinostat (NSC756642), pevonedistat (NSC761192), tazemetostat (NSC777109), talazoparib (NSC765396), olaparib (NSC753686), selinexor (NSC780203), nedisertib (M3814, NSC802822), bortezomib (NSC756655), venetoclax (NSC766270), doxorubicin (NSC123127), elimusertib (BAY189344, NSC800525), ceralasertib (AZD6738, NSC777638), TAK-243 (NSC785004), alisertib (NSC759677), etoposide (NSC141540), topotecan (NSC609699), eribulin (NSC707389), gemcitabine (NSC613327), carboplatin (NSC241240), cisplatin (NSC119875), and SN-38 (NSC673596) were obtained from the National Cancer Institute (NCI) Developmental Therapeutics Program Chemical Repository (32). The FDA-approved anticancer drug set is available from the Developmental Therapeutics Program at https://dtp.cancer.gov/organization/dscb/obtaining/available plates.htm. […] The stock solutions were prepared in dimethyl sulfoxide (DMSO, Sigma-Aldrich, St. Louis, MO, cat. D2650), except for the platinum compounds which were prepared in saline (Quality Biological, Gaithersburg, MD, cat. 114-055-101), at 800-fold the tested concentration and stored at -70 degrees C prior to their use. All drugs and investigational agents were tested over a range starting from a high concentration at or near the clinical Cmax and decreasing in half-log increments. If the clinical Cmax for an agent had not been determined, the highest concentration tested was 10 microM (Table 1).\nCell Culture. All cells were maintained in an incubator at 37 degrees C and 5% CO2 with 95% humidity. The PDC lines were cultured according to standard operating procedures established by the NCI PDMR (https://pdmr.cancer.gov). Briefly, all PDCs were thawed and cultured in Matrigel-coated flasks prepared with a working solution of 1X Ham's F-12 nutrient mix, without supplementation (Invitrogen, Waltham, MA, cat. 11765054), 100 U/mL penicillin-streptomycin (Invitrogen, cat. 15140122), and 2.5% Matrigel (Corning Inc., Corning, NY, cat. 354248) for the first three passages. All PDCs were cultured in complete DMEM/F-12 media containing advanced DMEM/F-12 (Invitrogen, cat. 12634028), 4.9% defined fetal bovine serum, heat inactivated (HyClone Laboratories Inc., Logan, UT, cat. SH30070.03HI), 389 ng/mL hydrocortisone (Sigma-Aldrich, cat. H4001), 9.7 ng/mL human EGF recombinant protein (Invitrogen, cat. PHG0313), 23.4 microg/mL adenine (Sigma-Aldrich, cat. A2786), 97.3 U/mL penicillin-streptomycin (Invitrogen, cat. 15140122), 1.9 mM L-glutamine (Invitrogen, cat. 25030081), and 9.7 microM Y-27632 dihydrochloride (Tocris Bioscience, Bristol, United Kingdom, cat. 1254). The PDCs were cultured in complete DMEM/F12 media without 10 microM Y-27632 dihydrochloride for at least two passages prior to the screen. The established cell lines NCI-H1341 and […] were cultured in DMEM/F-12, HEPES (Invitrogen, cat. 11330032), 5% defined fetal bovine serum (HyClone Laboratories Inc., cat. SH30070.03), ITS premix universal culture supplement [insulin (5 microg/mL), transferrin (5 microg/mL), and selenious acid (5 ng/mL)] […]"}
{"smiles": "CC(C)c1c(-c2ccccc2)nc2c(C#N)c[nH]n2c1=O", "note": "+ Cc1ccccc1N=Nc1ccc(NC(=O)c2ccnn2C)c(C)c1", "values": [{"measurement": "IC50", "setting": "second compound 0.1 µM", "result": "> 10", "unit": "µM"}, {"measurement": "IC50", "setting": "second compound 0.316 µM", "result": "> 10", "unit": "µM"}, {"measurement": "IC50", "setting": "second compound 1 µM", "result": "> 10", "unit": "µM"}, {"measurement": "IC50", "setting": "second compound 3.16 µM", "result": "> 10", "unit": "µM"}, {"measurement": "IC50", "setting": "second compound 10 µM", "result": "> 10", "unit": "µM"}, {"measurement": "viability, T/C", "setting": "second compound 0.1 µM, first compound 0.0316 µM", "result": 103, "unit": "%"}, {"measurement": "viability, T/C", "setting": "second compound 0.1 µM, first compound 0.1 µM", "result": 104, "unit": "%"}, {"measurement": "viability, T/C", "setting": "second compound 0.1 µM, first compound 0.316 µM", "result": 89.5, "unit": "%"}, {"measurement": "viability, T/C", "setting": "second compound 0.1 µM, first compound 1 µM", "result": 99.1, "unit": "%"}, {"measurement": "viability, T/C", "setting": "second compound 0.1 µM, first compound 3.16 µM", "result": 112, "unit": "%"}, {"measurement": "viability, T/C", "setting": "second compound 0.1 µM, first compound 10 µM", "result": 97.9, "unit": "%"}, {"measurement": "viability, T/C", "setting": "second compound 0.316 µM, first compound 0.0316 µM", "result": 95.6, "unit": "%"}, {"measurement": "viability, T/C", "setting": "second compound 0.316 µM, first compound 0.1 µM", "result": 99.4, "unit": "%"}, {"measurement": "viability, T/C", "setting": "second compound 0.316 µM, first compound 0.316 µM", "result": 99.4, "unit": "%"}, {"measurement": "viability, T/C", "setting": "second compound 0.316 µM, first compound 1 µM", "result": 93.6, "unit": "%"}, {"measurement": "viability, T/C", "setting": "second compound 0.316 µM, first compound 3.16 µM", "result": 103, "unit": "%"}, {"measurement": "viability, T/C", "setting": "second compound 0.316 µM, first compound 10 µM", "result": 88.7, "unit": "%"}, {"measurement": "viability, T/C", "setting": "second compound 1 µM, first compound 0.0316 µM", "result": 97.7, "unit": "%"}, {"measurement": "viability, T/C", "setting": "second compound 1 µM, first compound 0.1 µM", "result": 96.9, "unit": "%"}, {"measurement": "viability, T/C", "setting": "second compound 1 µM, first compound 0.316 µM", "result": 101, "unit": "%"}, {"measurement": "viability, T/C", "setting": "second compound 1 µM, first compound 1 µM", "result": 97, "unit": "%"}, {"measurement": "viability, T/C", "setting": "second compound 1 µM, first compound 3.16 µM", "result": 99.3, "unit": "%"}, {"measurement": "viability, T/C", "setting": "second compound 1 µM, first compound 10 µM", "result": 104, "unit": "%"}, {"measurement": "viability, T/C", "setting": "second compound 3.16 µM, first compound 0.0316 µM", "result": 109, "unit": "%"}, {"measurement": "viability, T/C", "setting": "second compound 3.16 µM, first compound 0.1 µM", "result": 100, "unit": "%"}, {"measurement": "viability, T/C", "setting": "second compound 3.16 µM, first compound 0.316 µM", "result": 101, "unit": "%"}, {"measurement": "viability, T/C", "setting": "second compound 3.16 µM, first compound 1 µM", "result": 96.3, "unit": "%"}, {"measurement": "viability, T/C", "setting": "second compound 3.16 µM, first compound 3.16 µM", "result": 94.9, "unit": "%"}, {"measurement": "viability, T/C", "setting": "second compound 3.16 µM, first compound 10 µM", "result": 104, "unit": "%"}, {"measurement": "viability, T/C", "setting": "second compound 10 µM, first compound 0.0316 µM", "result": 95, "unit": "%"}, {"measurement": "viability, T/C", "setting": "second compound 10 µM, first compound 0.1 µM", "result": 98, "unit": "%"}, {"measurement": "viability, T/C", "setting": "second compound 10 µM, first compound 0.316 µM", "result": 96.5, "unit": "%"}, {"measurement": "viability, T/C", "setting": "second compound 10 µM, first compound 1 µM", "result": 95.7, "unit": "%"}, {"measurement": "viability, T/C", "setting": "second compound 10 µM, first compound 3.16 µM", "result": 96.1, "unit": "%"}, {"measurement": "viability, T/C", "setting": "second compound 10 µM, first compound 10 µM", "result": 95.7, "unit": "%"}]}
{"smiles": "CCN(c1cc(-c2ccc(CN3CCOCC3)cc2)cc(C(=O)NCc2c(C)cc(C)[nH]c2=O)c1C)C1CCOCC1", "note": "+ Cc1cncc(-c2nc(NCCc3c[nH]c4ccccc34)c3ncn(C(C)C)c3n2)c1", "values": [{"measurement": "IC50", "setting": "second compound 0.1 µM", "result": "> 3", "unit": "µM"}, {"measurement": "IC50", "setting": "second compound 0.316 µM", "result": "> 3", "unit": "µM"}, {"measurement": "IC50", "setting": "second compound 1 µM", "result": "> 3", "unit": "µM"}, {"measurement": "IC50", "setting": "second compound 3.16 µM", "result": "> 3", "unit": "µM"}, {"measurement": "IC50", "setting": "second compound 10 µM", "result": "> 3", "unit": "µM"}, {"measurement": "viability, T/C", "setting": "second compound 0.1 µM, first compound 0.00949 µM", "result": 103, "unit": "%"}, {"measurement": "viability, T/C", "setting": "second compound 0.1 µM, first compound 0.03 µM", "result": 97.3, "unit": "%"}, {"measurement": "viability, T/C", "setting": "second compound 0.1 µM, first compound 0.0949 µM", "result": 97.7, "unit": "%"}, {"measurement": "viability, T/C", "setting": "second compound 0.1 µM, first compound 0.3 µM", "result": 96.9, "unit": "%"}, {"measurement": "viability, T/C", "setting": "second compound 0.1 µM, first compound 0.949 µM", "result": 99.3, "unit": "%"}, {"measurement": "viability, T/C", "setting": "second compound 0.1 µM, first compound 3 µM", "result": 97.3, "unit": "%"}, {"measurement": "viability, T/C", "setting": "second compound 0.316 µM, first compound 0.00949 µM", "result": 106, "unit": "%"}, {"measurement": "viability, T/C", "setting": "second compound 0.316 µM, first compound 0.03 µM", "result": 98.8, "unit": "%"}, {"measurement": "viability, T/C", "setting": "second compound 0.316 µM, first compound 0.0949 µM", "result": 102, "unit": "%"}, {"measurement": "viability, T/C", "setting": "second compound 0.316 µM, first compound 0.3 µM", "result": 92.4, "unit": "%"}, {"measurement": "viability, T/C", "setting": "second compound 0.316 µM, first compound 0.949 µM", "result": 99, "unit": "%"}, {"measurement": "viability, T/C", "setting": "second compound 0.316 µM, first compound 3 µM", "result": 98.8, "unit": "%"}, {"measurement": "viability, T/C", "setting": "second compound 1 µM, first compound 0.00949 µM", "result": 103, "unit": "%"}, {"measurement": "viability, T/C", "setting": "second compound 1 µM, first compound 0.03 µM", "result": 101, "unit": "%"}, {"measurement": "viability, T/C", "setting": "second compound 1 µM, first compound 0.0949 µM", "result": 111, "unit": "%"}, {"measurement": "viability, T/C", "setting": "second compound 1 µM, first compound 0.3 µM", "result": 97, "unit": "%"}, {"measurement": "viability, T/C", "setting": "second compound 1 µM, first compound 0.949 µM", "result": 92.2, "unit": "%"}, {"measurement": "viability, T/C", "setting": "second compound 1 µM, first compound 3 µM", "result": 93.3, "unit": "%"}, {"measurement": "viability, T/C", "setting": "second compound 3.16 µM, first compound 0.00949 µM", "result": 109, "unit": "%"}, {"measurement": "viability, T/C", "setting": "second compound 3.16 µM, first compound 0.03 µM", "result": 105, "unit": "%"}, {"measurement": "viability, T/C", "setting": "second compound 3.16 µM, first compound 0.0949 µM", "result": 114, "unit": "%"}, {"measurement": "viability, T/C", "setting": "second compound 3.16 µM, first compound 0.3 µM", "result": 106, "unit": "%"}, {"measurement": "viability, T/C", "setting": "second compound 3.16 µM, first compound 0.949 µM", "result": 104, "unit": "%"}, {"measurement": "viability, T/C", "setting": "second compound 3.16 µM, first compound 3 µM", "result": 121, "unit": "%"}, {"measurement": "viability, T/C", "setting": "second compound 10 µM, first compound 0.00949 µM", "result": 86.9, "unit": "%"}, {"measurement": "viability, T/C", "setting": "second compound 10 µM, first compound 0.03 µM", "result": 81.2, "unit": "%"}, {"measurement": "viability, T/C", "setting": "second compound 10 µM, first compound 0.0949 µM", "result": 86.5, "unit": "%"}, {"measurement": "viability, T/C", "setting": "second compound 10 µM, first compound 0.3 µM", "result": 81.1, "unit": "%"}, {"measurement": "viability, T/C", "setting": "second compound 10 µM, first compound 0.949 µM", "result": 87.2, "unit": "%"}, {"measurement": "viability, T/C", "setting": "second compound 10 µM, first compound 3 µM", "result": 90.1, "unit": "%"}]}
